Reference: patent publication EP3446753B1, “NEW THERAPEUTIC USES OF PEPTIDES OF THE ADIPOKINETIC HORMONE FAMILY” (Mutlu, Oguz, priority 2017, dated 2019)
Counter-ions that a name gives are not always drawn. Square brackets hold non-standard residues; d marks the D form. Peptide text beside a SMILES is read from it. pGlu = O=C1CC[C@@H](C(=O)O)N1

How the values were obtained:
Long Evans rats = assay: Active Allothetic Place Avoidance test (AAPA), MK-801 model; format: in vivo; details: for MK-801 (0.15 mg/kg) induced cognitive memory impairment effects: peptide 2 mg/kg administered subchronically + MK-801 0.15 mg/kg, summary statement; for reversal of MK-801 increased locomotion (total distance (m) moved) / reversal of MK-801 decreased maximum time of avoidance (s) / reversal of MK-801 increased number of entries to the shock sector / reversal of MK-801 increased number of shocks: peptide 2 mg/kg i.p. + MK-801 0.15 mg/kg i.p., compared to MK-801 alone; for reversal of MK-801 increased locomotion (total distance (m) moved): 4 days (subchronically)
Procedure: 3-4 month-old male rats of the Long Evans strain were used for the Active Allothetic Place Avoidance test and were obtained from the accredited breeding colony of the Institute of Physiology, Academy of Science, Prague. Rats were acclimatised for 7-10 days prior to testing, during which they were weighed twice and handled four times. Rats were housed in pairs in transparent plastic cages (30×30×40 cm) in an air-conditioned animal room with a constant temperature of 21 °C and with 12/12 light/dark cycle (lights on at 7:00). All animals received food and water ad libitum. All experiments respected the Guidelines of the European Union (86/609/EU) and the National Committee for the Care and Use of Laboratory Animals (Czech Republic) and were approved by the committee under the number: MEYSCR-27527/2012-31.
In the Active Allothetic Place Avoidance test, Long Evans rats were treated with Ani-AKH (1 and 2 mg/kg) (n=8), Lia-AKH (1 and 2 mg/kg) (n=8), Pht-HrTH (1 and 2 mg/kg) (n=8), MK-801 (0.15 mg/kg) (n=8), Ani-AKH (2 mg/kg)+MK-801 (0.15 mg/kg) (n=8), Lia-AKH (2 mg/kg)+MK-801 (0.15 mg/kg) (n=8), Pht-HrTH (2 mg/kg)+MK-801 (0.15 mg/kg) (n=8) or vehicle (control group=saline with 15% DMSO) (n= 8) for 4 days (subchronically). Ani-AKH, Lia-AKH and Pht-HrTH were administered intraperitoneally (i.p.) 60 min. before the Active Allothetic Place Avoidance test while MK-801 was administered (i.p.) 40 min. before the test in a volume of 2ml/kg body weight. Separate group of animals were used in each test. The doses of the drugs were chosen according to the previous studies (Mutlu et al. 2016).
(+)-MK-801 maleate ((5S,10R)-(+)-5-methyl-10,11-dihydro-5H-dibenzo(a, d)-cyclo-hepten-5,10-imine maleate) was obtained from Tocris Bioscience, United Kingdom. Anax imperator AKH (Ani-AKH), Libellula auripennis AKH (Lia-AKH) and Phormia-Terra hypertrehalosemic hormone (Pht-HrTH) were purchased from TRC (Toronto/Canada). MK-801 was dissolved in saline while AKH was dissolved in saline mixed with 15% DMSO. Saline with 15% DMSO was used as control group.
The Active Allothetic Place Avoidance Test is a spatial memory test that can determine the ability of animals to organize their behavior efficiently in both normal and pathological conditions. Successful performance in the test requires the rat to solve a conflict between two discordant subsets of spatial stimuli (extramaze and intramaze cues). It is believed that successful performance in the Active Allothetic Place Avoidance Test, where the rat has to differentiate between relevant and irrelevant stimuli, depends on the mode of information processing disturbed in schizophrenic patients (Bubenikova-Valesova et al., 2008b). The Active Allothetic Place Avoidance arena was described in detail in previous papers (Cimadevilla et al., 2001). Briefly, it consisted of a smooth metallic circular arena (82 cm in diameter), enclosed by a 30 cm high transparent Plexiglas wall. The arena was elevated 1 m above the floor of 4×5 m experimental room containing an abundance of extramaze landmarks. The arena together with the wall was rotated (1 rpm) by an electric motor placed underneath the arena disc. At the beginning of each training session, a rat was placed in the arena at a location opposite an imperceptible 60° to-be- avoided sector (shock sector), which was defined by the computer- based tracking system (iTrack, Biosignal Group, USA), located in an adjacent room. The arena rotation started immediately after placement of the rat. The location of the shock sector could be determined solely by its spatial relation to the distal orienting cues located in the room. Rats were wearing a light latex harness, to which an infrared light-emitting diode (LED) was attached between the rat's shoulders. Whenever the rat entered the to-be-avoided sector for more than 500 ms (millisecond), the tracking system delivered a mild, constant-current shock (50 Hz, 0.5 s, 0.4-0.7 mA) and counted an entrance. […]

[1] = system: Emperor dragonfly, Anax imperator; details: low concentrations of the synthetic peptide injected into the Emperor dragonfly; cited from earlier work
[2] = MK-801 0.15 mg/kg i.p. alone, 4 days, compared to control

Structure (SMILES)	MK-801 (0.15 mg/kg) induced cognitive memory impairment effects (Long Evans rats)	reversal of MK-801 increased locomotion (total distance (m) moved) (Long Evans rats)	reversal of MK-801 decreased maximum time of avoidance (s) (Long Evans rats; 4 days)	reversal of MK-801 increased number of entries to the shock sector (Long Evans rats; 4 days)	reversal of MK-801 increased number of shocks (Long Evans rats; 4 days)	locomotion (total distance (m) moved) (Long Evans rats; [2])	maximum time of avoidance (s) (Long Evans rats; [2])	number of entries to the shock sector (Long Evans rats; [2])	number of shocks (Long Evans rats; [2])	haemolymph lipid concentration [1]
CC(C)[C@H](NC(=O)[C@@H]1CCC(=O)N1)C(=O)N[C@@H](CC(N)=O)C(=O)N[C@@H](Cc1ccccc1)C(=O)N[C@H](C(=O)N1CCC[C@H]1C(=O)N[C@@H](CO)C(=O)N[C@@H](Cc1c[nH]c2ccccc12)C(N)=O)[C@@H](C)O [Lia-AKH, 5-oxo-L-prolyl-L-valyl-L-asparaginyl-L-phenylalanyl-L-threonyl-L-prolyl-L-seryl-L-Tryptophanamide] ([pGlu]VNFTPSW-NH2)	reverse	partial effect	significantly reversed this effect	significantly reversed this effect	significantly reversed this effect	–	–	–	–	–
C[C@]12N[C@H](Cc3ccccc31)c1ccccc12 [MK-801, (5S,10R)-(+)-5-methyl-10,11-dihydro-5H-dibenzo(a, d)-cyclo-hepten-5,10-imine maleate]	–	–	–	–	–	significantly increased locomotion	significantly decreased maximum time of avoidance	significantly increased number of entries	significantly increased number of shocks	–
CC(C)C[C@H](NC(=O)[C@@H]1CCC(=O)N1)C(=O)N[C@H](C(=O)N[C@@H](Cc1ccccc1)C(=O)N[C@@H](CO)C(=O)N1CCC[C@H]1C(=O)N[C@@H](CC(=O)O)C(=O)N[C@@H](Cc1c[nH]c2ccccc12)C(N)=O)[C@@H](C)O [Pht-HrTH, 5-oxo-L-prolyl-L-leucyl-L-threonyl-L-phenylalanyl-L-seryl-L-prolyl-L-alfa-aspartyl-L-Tryptophanamide] ([pGlu]LTFSPDW-NH2)	reverse	no reversing effect	significantly reversed this effect	significantly reversed this effect	significantly reversed this effect	–	–	–	–	–
CC(C)[C@H](NC(=O)[C@@H]1CCC(=O)N1)C(=O)N[C@@H](CC(N)=O)C(=O)N[C@@H](Cc1ccccc1)C(=O)N[C@@H](CO)C(=O)N1CCC[C@H]1C(=O)N[C@@H](CO)C(=O)N[C@@H](Cc1c[nH]c2ccccc12)C(N)=O [Ani-AKH, 5-oxo-L-prolyl-L-valyl-L-asparaginyl-L-phenylalanyl-L-seryl-L-prolyl-L-seryl-L-Tryptophanamide] ([pGlu]VNFSPSW-NH2)	reverse	significantly reversed	significantly reversed this effect	significantly reversed this effect	significantly reversed this effect	–	–	–	–	increased the haemolymph lipid concentration
